Measurements as given in patent US9326508B2, “(S)-3′-methyl-abscisic acid and esters thereof” (Valent BioSciences Corporation, priority 2014, dated 2016).

What was measured:
Arabidopsis thaliana = assay: Seed Germination Assay; format: in vivo; details: for time for 100% germination: Arabidopsis seed, 0.3 ppm test compound, 0.5% DMSO
Procedure: To determine the germination inhibition potency of the analogs, a germination assay was performed with the model plant Arabidopsis thaliana. Arabidopsis seed was sterilized by shaking for five minutes in 200 proof ethanol, followed by shaking for five minutes in a 10% bleach solution. The seeds were then washed five times in sterile, distilled, de-ionized water and suspended in 0.1% phytoagar. The tubes containing the seeds were wrapped in aluminum foil and stratified at 4° C. for at least two days. The analogs were tested in four-well plates. Each plate contained one well each of a 0.5% DMSO control, (S)-ABA, (S)-3′-methyl-ABA (Example 2) and (±)-3′-methyl-ABA (Example 4), all at a desired concentration. In a typical experiment, 18 microliters of a 100 ppm stock solution of each compound in 10% DMSO was pipetted into the designated well. Additional DMSO (28.2 microliters) and water (3.8 microliters) was added to each well, followed by the addition of 5.95 mL of ½×Murashige and Skoog media containing 1.2% Bactoagar to all the wells. This gave a total volume of 6.0 mL per well, 0.3 ppm of the test compound and final DMSO concentration of 0.5%. When the media solidified, one hundred sterile stratified Arabidopsis seeds were distributed into each well. The plates were sealed with surgical tape and placed in a growth chamber running diurnal cycles of 12 hours of light at 24° C. and 12 hours of darkness at 19° C. The plates were scanned daily at high resolution (600 dpi) until all seeds were germinated. A seed was scored as germinated once the radicle emerged. The percentage of seeds germinated each day is reported in the graph of FIG. 1. The tests at each concentration were repeated at least twice and the results were reproducible.

(S)-ABA 8′-hydroxylase = details: according to Ueno, et al.; cited from earlier work
rice seedling = details: according to Ueno, et al.; cited from earlier work

| SMILES | time for 100% germination (Arabidopsis thaliana) [days] | activity in (S)-ABA 8′-hydroxylase inhibition assay relative to (S)-ABA ((S)-ABA 8′-hydroxylase) | activity in rice seedling elongation assay relative to (S)-ABA (rice seedling) | potency at inhibiting Arabidopsis seed germination relative to (S)-ABA or (±)-3′-methyl-ABA (Arabidopsis thaliana; 0.3 ppm, FIG. 1) |
| --- | --- | --- | --- | --- |
| CC1=C(C)C(O)(/C=C/C(C)=C\C(=O)O)C(C)(C)CC1=O (racemic) [Example 4, (±)-(2Z,4E)-5-(1-hydroxy-2,3,6,6-tetramethyl-4-oxocyclohex-2-en-1-yl)-3-methylpenta-2,4-dienoic acid] | 8 | weaker activity than (S)-ABA | equal activity to (S)-ABA |  |
| CC1=CC(=O)CC(C)(C)[C@@]1(O)/C=C/C(C)=C/C(=O)O [(S)-ABA, (S)-abscisic acid] | 6 |  |  |  |
| CC1=C(C)[C@](O)(/C=C/C(C)=C\C(=O)O)C(C)(C)CC1=O [Example 2, (2Z,4E)-((S)-1-hydroxy-2,3,6,6-tetramethyl-4-oxocyclohex-2-en-1-yl)-3-methylpenta-2,4-dienoic acid] | 15 |  |  | more potent |
